Like-named read-outs stand apart in the source and are kept apart here.
Key:
BaDHPS [1] = molecular target: T1, BaDHPS (Bacillus anthracis, UniProt Q81VW8); test: biochemical; type: biochemical; conditions: for inhibition at 250 µM: read-out: Enzyme Inhibition Activity% @250μM
BaDHPS [2] = molecular target: T1, BaDHPS; test: biochemical; type: binding; conditions: for SPR kd: 25 °C; for kon: read-out: SPR ka
BaDHPS [3] = molecular target: T1, BaDHPS; type: binding; conditions: 25 °C, pH 7.6

T1 sequence (Q81VW8 1-280): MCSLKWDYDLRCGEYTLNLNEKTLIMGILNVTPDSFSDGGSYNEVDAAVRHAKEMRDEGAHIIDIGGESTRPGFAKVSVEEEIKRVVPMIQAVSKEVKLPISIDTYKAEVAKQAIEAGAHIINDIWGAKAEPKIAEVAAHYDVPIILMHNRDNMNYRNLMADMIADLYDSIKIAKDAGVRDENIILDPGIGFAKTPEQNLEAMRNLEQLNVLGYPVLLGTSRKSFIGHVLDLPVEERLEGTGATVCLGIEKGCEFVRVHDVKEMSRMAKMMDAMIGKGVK

| Compound | IC50 (BaDHPS [1]) | inhibition at 250 µM (BaDHPS [1]) [%] | SPR kd (BaDHPS [2]) | Kd (BaDHPS [2]; SPR KD) [µM] | Kd (BaDHPS [2]; SPR KD(eq)) [µM] | kon (BaDHPS [2]) [M⁻¹ s⁻¹] | ITC N (stoichiometry of the interaction) (BaDHPS [3]) | ITC ΔG (BaDHPS [3]) [kcal/mol] | ITC ΔH (BaDHPS [3]) [kcal/mol] | ITC −TΔS (BaDHPS [3]) [kcal/mol] | Kd (BaDHPS [2]; read-out: SPR KD) [µM] | Kd (BaDHPS [2]; read-out: SPR KD(eq)) [µM] |
| --- | --- | --- | --- | --- | --- | --- | --- | --- | --- | --- | --- | --- |
| Cn1nc(C(=O)O)c(=O)c2c(=O)[nH]c(N)nc21 [Compound 5, 7-Amino-1-methyl-4,5-dioxo-1,4,5,6-tetrahydropyrimido[4,5-c]pyridazine-3-carboxylic acid] | no detectable IC50 value | 32.4 | – | – | – | – | – | – | – | – | – | – |
| Cn1nc(CC(=O)O)c(=O)c2c(=O)[nH]c(N)nc21 [Compound 16, 2-(7-Amino-1-methyl-4,5-dioxo-1,4,5,6-tetrahydropyrimido[4,5-c]pyridazin-3-yl)acetic acid] | 32 µM | 96 | 6.94(6) × 10^−2 s^−1 | 0.203 | 0.19 | 342000 | – | – | – | – | – | – |
| CC(CC(=O)O)c1nn(C)c2nc(N)[nH]c(=O)c2c1=O (stereo not shown) [Compound 17, 3-(7-Amino-1-methyl-4,5-dioxo-1,4,5,6-tetrahydropyrimido[4,5-c]pyridazin-3-yl)butanoic acid] | 145 µM | 52.5 | – | – | – | – | – | – | – | – | – | – |
| Cn1nc(CCC(=O)O)c(=O)c2c(=O)[nH]c(N)nc21 [Compound 18, 3-(7-Amino-1-methyl-4,5-dioxo-1,4,5,6-tetrahydropyrimido[4,5-c]pyridazin-3-yl)propanoic acid] | – | 65 | – | – | – | – | – | – | – | – | – | – |
| CC(C(=O)O)c1n[nH]c2nc(N)[nH]c(=O)c2c1=O (stereo not shown) [Compound 19, 2-(7-Amino-4,5-dioxo-1,4,5,6-tetrahydropyrimido[4,5-c]pyridazin-3-yl)propanoic acid] | – | 95.3 | 4.39(3) × 10^−2 s^−1 | 0.12 | 0.123 | 366000 | 0.9 | -9.65 | -8.7 | -0.95 | – | – |
| COC(=O)CCc1n[nH]c2nc(N)[nH]c(=O)c2c1=O [Compound 22, Methyl 3-(7-amino-4,5-dioxo-1,4,5,6-tetrahydropyrimido[4,5-c]pyridazin-3-yl)propanoate] | 260 µM | 33 | – | – | – | – | – | – | – | – | – | – |
| Nc1nc2[nH]nc(CC(=O)O)c(=O)c2c(=O)[nH]1 [Compound 23, 2-(7-Amino-4,5-dioxo-1,4,5,6-tetrahydropyrimido[4,5-c]pyridazin-3-yl)acetic acid] | 18 µM | 91 | 4.35(3) × 10^−2 s^−1 | 0.104 | 0.11 | 419000 | – | – | – | – | – | – |
| CC(CC(=O)O)c1n[nH]c2nc(N)[nH]c(=O)c2c1=O (stereo not shown) [Compound 24, 3-(7-Amino-4,5-dioxo-1,4,5,6-tetrahydropyrimido[4,5-c]pyridazin-3-yl)butanoic acid] | 57 µM | 75.8 | 3.39(1) × 10^−1 s^−1 | – | – | 643000 | 0.8 | -8.6 | -7.5 | -1.1 | – | – |
| Nc1nc2[nH]nc(CCC(=O)O)c(=O)c2c(=O)[nH]1 [Compound 25, 3-(7-Amino-4,5-dioxo-1,4,5,6-tetrahydropyrimido[4,5-c]pyridazin-3-yl)propanoic acid] | 36 µM | 91.8 | 3.14(1) × 10^−1 s^−1 | – | – | 442000 | 0.7 | -8.94 | -10.4 | 1.46 | 0.71 | 0.713 |
